Measured values taken from patent US20230234943A1, “TREX1 INHIBITORS AND USES THEREOF” (Tempest Therapeutics, Inc., priority 2020, published 2023).

What was measured:
[1] = molecular target: T1, Human TREX1 enzyme (amino acids 1-242) (Homo sapiens, UniProt Q9NSU2); assay: Human TREX1 enzymatic assay with dsDNA native oligonucleotide (Picogreen fluorescence); type: biochemical; conditions: 2 mM dithiothreitol in assay buffer; 50 nM dsDNA oligonucleotide; 30 min preincubation at 25° C.; read-out: TREX1/Human + DTT IC50 AVG
T1 construct: Human TREX1 enzyme (amino acids 1-242)
T1 sequence (Q9NSU2 1-242): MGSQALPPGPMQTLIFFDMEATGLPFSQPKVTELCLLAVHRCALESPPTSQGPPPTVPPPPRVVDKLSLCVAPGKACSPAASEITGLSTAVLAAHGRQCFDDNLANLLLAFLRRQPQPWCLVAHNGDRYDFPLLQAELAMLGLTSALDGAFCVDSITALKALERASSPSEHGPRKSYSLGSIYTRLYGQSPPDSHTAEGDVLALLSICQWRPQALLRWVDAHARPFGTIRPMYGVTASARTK
How it was run: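 TREX1 (0.8–0.16 nM final) preincubated with compound (300 μM–13 nM or 30 μM–1.5 nM, 2% DMSO) 30 min at 25 °C in Tris pH 7.7, 5 mM MgCl2, 2 mM DTT. Annealed dsDNA (50 nM) added for 5–15 min at 25 °C; EDTA quench with Picogreen fluorescence readout.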

[2] = molecular target: T2, Human TREX1 (Homo sapiens, UniProt Q9NSU2); assay: Gel assay (orthogonal control, IR-680 oligonucleotide strand degradation); type: biochemical; conditions: polyacrylamide gel, top band intensity; different doses of inhibitor
T2 sequence (Q9NSU2 1-314): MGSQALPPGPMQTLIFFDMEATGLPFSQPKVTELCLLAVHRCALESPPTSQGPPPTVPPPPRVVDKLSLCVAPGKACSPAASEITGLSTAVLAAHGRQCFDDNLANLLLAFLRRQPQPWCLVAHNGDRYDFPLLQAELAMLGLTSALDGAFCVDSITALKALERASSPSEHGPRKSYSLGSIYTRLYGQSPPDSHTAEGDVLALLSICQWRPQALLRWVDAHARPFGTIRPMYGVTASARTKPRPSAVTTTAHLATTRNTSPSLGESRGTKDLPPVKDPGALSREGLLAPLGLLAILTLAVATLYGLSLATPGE
Procedure: A gel assay was conducted as an orthogonal control to confirm observations of TREX1 inhibitors determined with the fluorescence-based assay. Briefly, compounds were diluted in DMSO at 50× the final concentration. Human TREX1 was diluted to […] (2×concentration) in assay buffer (assay buffer: 20 mM Tris pH 7.7 (Life T-echnologies), 5 mM MgCl2 (Sigma), 0.01% HSA (Sigma), 0.01% Brij-35 (ThermoFisher), 2 mM DTT (Sigma)). Oligonucleotide strand (IR-680-5′[…]-3′) (Custom probe made by Trilink) was diluted in the same assay buffer to a working concentration of 25 nM (final concentration of 12.5 nM). Example 107 was added to […] human TREX1 enzyme in clear 96 well plates. The plate was then incubated at 25° C. for 30 minutes. Twenty five nM oligonucleotide strand was added to the plate, to a final concentration of 30 pM TREX1, 12.5 nM oligo, 1× compound and incubated at 25° C. Fifteen minutes later, the reaction was stopped by removing 10 μl of the reaction and adding it to 20 μl of a solution of 50 mM EDTA/1.5× loading dye buffer (6× Orange DNA loading dye; ThermoFisher) in a 96 well PCR plate. […] The top band was quantified using Image Studio (Licor). […] The top band intensity was measured using the Odyssey scanner (Li-Cor) and ImageStudio software (Li-Cor) and FIG. 1B: Graph representing the percent of top band intensity degradation as a measure of human TREX1 activity. […]

SMILES	IC50 [1]	melting point	inhibition of human TREX1 / DNA degradation in gel assay (FIGS. 1A and 1B) [2]
COc1cc(-c2nc3ccc(S(C)(=O)=O)cc3n2C2(C)COC2)c(F)c(O)c1O [Example 178, 3-fluoro-4-[6-methanesulfonyl-1-(3-methyloxetan-3-yl)-1H-1,3-benzodiazol-2-yl]-6-methoxybenzene-1,2-diol]	1 to 10 µM	257.6 °C	–
COc1ccc2[nH]c(-c3cc(OC)c(O)c(O)c3C)nc2c1 [Example 175, 6-methoxy-4-(5-methoxy-1H-benzo[d]imidazol-2-yl)-3-methylbenzene-1,2-diol]	10 to 100 µM	249.1 °C	–
COc1cc(-c2nc3ccc(C(=O)Nc4cnoc4)cc3n2C2(C)COC2)c(F)c(O)c1O [Example 247, 2-(2-fluoro-3,4-dihydroxy-5-methoxyphenyl)-N-(isoxazol-4-yl)-1-(3-methyloxetan-3-yl)-1H-benzo[d]imidazole-6-carboxamide]	≤ 0.1 µM	–	–
COc1cc(-c2nc3cc(N4CCN(C(=O)c5ccc(C(F)(F)F)cc5)CC4)ccc3[nH]2)cc(O)c1O [Example 102, (4-(2-(3,4-dihydroxy-5-methoxyphenyl)-1H-benzo[d]imidazol-5-yl)piperazin-1-yl)(4-(trifluoromethyl)phenyl)methanone]	> 100 µM	–	–
COc1cc(-c2nc3c(N4CCOCC4)nccc3[nH]2)cc(O)c1O [Example 110, 3-methoxy-5-(4-morpholino-1H-imidazo[4,5-c]pyridin-2-yl)benzene-1,2-diol]	> 100 µM	–	–
COc1cc(-c2nc3cc(Cl)c(Cl)cc3[nH]2)c(F)c(O)c1O [Example 300, 4-(5,6-dichloro-1H-benzo[d]imidazol-2-yl)-3-fluoro-6-methoxybenzene-1,2-diol]	10 to 100 µM	–	–
COc1cc(-c2nc3cc(N4CC(S(C)(=O)=O)C4)ccc3[nH]2)cc(O)c1O [Example 139, 3-methoxy-5-(5-(3-(methylsulfonyl)azetidin-1-yl)-1H-benzo[d]imidazol-2-yl)benzene-1,2-diol]	1 to 10 µM	–	–

Further lines, with some results ahead:

IC50 [1]	melting point	SMILES	inhibition of human TREX1 / DNA degradation in gel assay (FIGS. 1A and 1B) [2]
0.1 to 1 µM	209 °C	COc1cc(-c2nc3ccc(C#N)cc3n2C2(C)COC2)c(F)c(O)c1O [Example 179, 2-(2-fluoro-3,4-dihydroxy-5-methoxyphenyl)-1-(3-methyloxetan-3-yl)-1H-1,3-benzodiazole-6-carbonitrile]	–
10 to 100 µM	209 °C	COc1cc(-c2nc3ccccc3n2C2CCC2)c(C2CC2)c(O)c1O [Example 174, 4-(1-cyclobutyl-1H-benzo[d]imidazol-2-yl)-3-cyclopropyl-6-methoxybenzene-1,2-diol]	–
≤ 0.1 µM	170.4 °C	COc1cc(-c2nc3ccc(C(N)=O)cc3n2C2(C)COC2)c(F)c(O)c1O [Example 180, 2-(2-fluoro-3,4-dihydroxy-5-methoxyphenyl)-1-(3-methyloxetan-3-yl)-1H-1,3-benzodiazole-6-carboxamide]	–
1 to 10 µM	–	COc1cc(-c2nc3ccc(N4CCN(S(C)(=O)=O)CC4)cc3n2C2CCOC2)cc(O)c1O (stereo not drawn) [Example 107, 3-methoxy-5-(6-(4-(methylsulfonyl)piperazin-1-yl)-1-(tetrahydrofuran-3-yl)-1H-benzo[d]imidazol-2-yl)benzene-1,2-diol]	inhibits human TREX1 and prevents DNA degradation
> 100 µM	–	COc1cc(-c2nc3ccc(N4CCN(C)CC4)cc3n2C2COC2)cc(O)c1O [Example 51, 3-methoxy-5-(6-(4-methylpiperazin-1-yl)-1-(oxetan-3-yl)-1H-benzo[d]imidazol-2-yl)benzene-1,2-diol]	–
0.1 to 1 µM	–	Oc1cc(-c2nc3ccccc3n2C2COC2)c2c(c1O)OCCC2 [Example 163, 5-(1-(oxetan-3-yl)-1H-benzo[d]imidazol-2-yl)chroman-7,8-diol]	–
0.1 to 1 µM	–	COc1cc(-c2nc3ccc(C(=O)NC4CCNCC4)cc3n2C2(C)COC2)c(F)c(O)c1O [Example 255, 2-(2-fluoro-3,4-dihydroxy-5-methoxyphenyl)-1-(3-methyloxetan-3-yl)-N-(piperidin-4-yl)-1H-benzo[d]imidazole-6-carboxamide]	–
≤ 0.1 µM	–	COc1cc(-c2nc3ccc(-c4nnco4)cc3n2C2(C)COC2)c(F)c(O)c1O [Example 238, 3-fluoro-6-methoxy-4-[1-(3-methyloxetan-3-yl)-6-(1,3,4-oxadiazol-2-yl)-1H-1,3-benzodiazol-2-yl] benzene-1,2-diol]	–
